Experimental data reported in US4946941A, “Novel glycopeptide antibiotics” (Shionogi & Co., Ltd., priority 1986, dated 1990).
In brackets after ≈: the same amount, converted by molar mass.

Key:
[1] = tested on: Micrococcus luteus ATCC 9341; assay: In vitro antibacterial activity, agar dilution method (MIC); type: cell-based; settings: 37° C., 18-20 hrs
Method: (§1) In vitro antibacterial activity was determined by the agar dilution method as described below.
(§2) One loopful of each test bacterium on a slant was inoculated into 1 ml of a growth medium (Trypto Soy Broth, Eiken Chemical Co.) and incubated at 37° C. for 18-20 hours. For the growth of Streptococci, Mueller-Hinton broth (Difco) supplemented with 3%(V/V) horse serum was employed. A hundred-fold dilution of the culture is used as an inoculum suspension of the bacterium.
(§3) The sample (9-10 mg) was weighed and dissolved in distilled water at a concentration of 2 mg/ml.
(§4) A sample solution was subjected to serial two fold dilutions with sterile water (2000-0.25 μg/ml). To sterile plastic petri dishes (9 cm in diameter) was poured 0.5 ml-aliquot of sample solutions, which was mixed with 9.5 ml of an agar medium (Sensitivity Test Agar, "Nissui"). For Streptococci, horse serum was supplied at 0.5%(V/V).
(§5) One loopful (1.0 μl) of the inoculum suspension was placed on the surface of the agar plates prepared as noted above. The bacterial growth was examined visually after overnight incubation (18-20 hrs) at 37° C.

[2] = tested on: Staphylococcus aureus 3131 (methicillin resistant); assay: as above; type: cell-based; settings: 37° C., 18-20 hrs
Method: as §1, §2, §3, §4, §5

[3] = tested on: Staphylococcus aureus ATCC 25923; assay: as above; type: cell-based; settings: 37° C., 18-20 hrs
Method: as §1, §2, §3, §4, §5

[4] = tested on: Staphylococcus aureus FDA 209F JC-1; assay: as above; type: cell-based; settings: 37° C., 18-20 hrs
Method: as §1, §2, §3, §4, §5

[5] = tested on: Staphylococcus aureus SMITH; assay: as above; type: cell-based; settings: 37° C., 18-20 hrs
Method: as §1, §2, §3, §4, §5

[6] = tested on: Staphylococcus aureus SR14 (penicillin resistant); assay: as above; type: cell-based; settings: 37° C., 18-20 hrs
Method: as §1, §2, §3, §4, §5

[7] = tested on: Staphylococcus aureus SR1626 (methicillin resistant); assay: as above; type: cell-based; settings: 37° C., 18-20 hrs
Method: as §1, §2, §3, §4, §5

[8] = tested on: Staphylococcus aureus SR3626 (methicillin resistant); assay: as above; type: cell-based; settings: 37° C., 18-20 hrs
Method: as §1, §2, §3, §4, §5

[9] = tested on: Streptococcus agalactica SR1247; assay: as above; type: cell-based; settings: agar dilution with 0.5% horse serum, 37° C., 18-20 hrs
Method: as §1, §2, §3, §4, §5

[10] = tested on: Streptococcus faecalis SR1004; assay: as above; type: cell-based; settings: agar dilution with 0.5% horse serum, 37° C., 18-20 hrs
Method: as §1, §2, §3, §4, §5

[11] = tested on: Streptococcus pneumoniae Type I; assay: as above; type: cell-based; settings: agar dilution with 0.5% horse serum, 37° C., 18-20 hrs
Method: as §1, §2, §3, §4, §5

[12] = tested on: Streptococcus pyogenes C-203; assay: as above; type: cell-based; settings: agar dilution with 0.5% horse serum, 37° C., 18-20 hrs
Method: as §1, §2, §3, §4, §5

[13] = tested on: Staphylococcus aureus SMITH; assay: Protective test in mice (in vivo antibacterial activity); settings: Staphylococcus aureus SMITH i.p. challenge, Slc-ICR female mice; s.c. 1 and 5 hours post-infection; survival on day 7
Method: (§6) Method: Test bacterium is intraperitoneally challenged to Slc-ICR female mice (8 mice/group), to which PA-42867-A and des-(4-epi-vancosaminyl) PA-42867-A (serial two fold dilution) are subcutaneously administered 1 and 5 hours post-infection.
(§7) Result: ED50 (50% effective dose) is calculated from survival rate of mice on day 7 after the infection.

[14] = tested on: Staphylococcus aureus SR2030 (methicillin-resistant); assay: as above; settings: Staphylococcus aureus SR2030 (methicillin-resistant) i.p. challenge, Slc-ICR female mice; s.c. 1 and 5 hours post-infection; survival on day 7
Method: as §6, §7

[15] = tested on: Streptoccus pyogenes C-302; assay: as above; settings: Streptoccus pyogenes C-302 i.p. challenge, Slc-ICR female mice; s.c. 1 and 5 hours post-infection; survival on day 7
Method: as §6, §7

[16] = tested on: Streptococcus pneumoniae Type I; assay: as above; settings: Streptococcus pneumoniae Type I i.p. challenge, Slc-ICR female mice; s.c. 1 and 5 hours post-infection; survival on day 7
Method: as §6, §7

[17] = Solubility (physicochemical property)
[18] = in ether, benzene, chloroform and ethyl acetate

| Structure (SMILES) | MIC [1] [µg/mL] | MIC [2] [µg/mL] | MIC [3] [µg/mL] | MIC [4] [µg/mL] | MIC [5] [µg/mL] | MIC [6] [µg/mL] | MIC [7] [µg/mL] | MIC [8] [µg/mL] | MIC [9] [µg/mL] | MIC [10] [µg/mL] | MIC [11] [µg/mL] | MIC [12] [µg/mL] | ED50 (50% effective dose) [13] [mg/kg/dose] | ED50 (50% effective dose) [14] [mg/kg/dose] | ED50 (50% effective dose) [15] [mg/kg/dose] | ED50 (50% effective dose) [16] [mg/kg/dose] | Solubility ([17]; in alcohol) | Solubility [17, 18] | Solubility ([17]; in water and dimethylsulfoxide) |
| --- | --- | --- | --- | --- | --- | --- | --- | --- | --- | --- | --- | --- | --- | --- | --- | --- | --- | --- | --- |
| CN[C@H](CC(C)C)C(=O)N[C@H]1C(=O)N[C@@H](CC(N)=O)C(=O)N[C@H]2C(=O)N[C@H]3C(=O)N[C@H](C(=O)N[C@H](C(=O)O)c4cc(O)cc(O)c4-c4cc3ccc4O)[C@H](O[C@H]3C[C@](C)(N)[C@@H](O)[C@H](C)O3)c3ccc(c(Cl)c3)Oc3cc2cc(c3O[C@@H]2O[C@H](CO)[C@@H](O)[C@H](O)[C@H]2O[C@H]2C[C@](C)(N)[C@@H](O)[C@H](C)O2)Oc2ccc(cc2)[C@H]1O [Compd. A, PA-42867-A] | 0.39 (≈ 0.25 µM) | 0.78 (≈ 0.501 µM) | 0.78 (≈ 0.501 µM) | 0.39 (≈ 0.25 µM) | 0.78 (≈ 0.501 µM) | 0.78 (≈ 0.501 µM) | 0.78 (≈ 0.501 µM) | 0.78 (≈ 0.501 µM) | 0.39 (≈ 0.25 µM) | 1.56 (≈ 1 µM) | 0.39 (≈ 0.25 µM) | 0.39 (≈ 0.25 µM) | 0.62 | 2.31 | 0.64 | 0.90 | Slightly soluble | Insoluble | Soluble |
| CN[C@H](CC(C)C)C(=O)N[C@H]1C(=O)N[C@@H](CC(N)=O)C(=O)N[C@H]2C(=O)N[C@H]3C(=O)N[C@H](C(=O)N[C@H](C(=O)O)c4cc(O)cc(O)c4-c4cc3ccc4O)[C@H](O[C@H]3C[C@](C)(N)[C@@H](O)[C@H](C)O3)c3ccc(c(Cl)c3)Oc3cc2cc(c3O[C@@H]2O[C@H](CO)[C@@H](O)[C@H](O)[C@H]2O[C@H]2C[C@H](O)[C@@H](O)[C@H](C)O2)Oc2ccc(cc2)[C@H]1O [Compd. B, PA-42867-B] | 1.56 (≈ 1.01 µM) | 1.56 (≈ 1.01 µM) | 3.13 (≈ 2.03 µM) | 1.56 (≈ 1.01 µM) | 3.13 (≈ 2.03 µM) | 1.56 (≈ 1.01 µM) | 1.56 (≈ 1.01 µM) | 1.56 (≈ 1.01 µM) | 0.78 (≈ 0.505 µM) | 3.13 (≈ 2.03 µM) | 0.78 (≈ 0.505 µM) | 0.78 (≈ 0.505 µM) |  |  |  |  | Slightly soluble | Insoluble | Soluble |
| CN[C@H](CC(C)C)C(=O)N[C@H]1C(=O)N[C@@H](CC(N)=O)C(=O)N[C@H]2C(=O)N[C@H]3C(=O)N[C@H](C(=O)N[C@H](C(=O)O)c4cc(O)cc(O)c4-c4cc3ccc4O)[C@H](O[C@H]3C[C@](C)(N)[C@@H](O)[C@H](C)O3)c3ccc(c(Cl)c3)Oc3cc2cc(c3O[C@@H]2O[C@H](CO)[C@@H](O)[C@H](O)[C@H]2O)Oc2ccc(cc2)[C@H]1O [Compd. C, des-(4-epi-vancosaminyl)-PA-42867-A] | 0.78 (≈ 0.551 µM) | 1.56 (≈ 1.1 µM) | 1.56 (≈ 1.1 µM) | 0.78 (≈ 0.551 µM) | 1.56 (≈ 1.1 µM) | 1.56 (≈ 1.1 µM) | 1.56 (≈ 1.1 µM) | 1.56 (≈ 1.1 µM) | 0.78 (≈ 0.551 µM) | 1.56 (≈ 1.1 µM) | 0.78 (≈ 0.551 µM) | 0.78 (≈ 0.551 µM) | 1.47 | 2.91 | 1.43 | 2.11 |  |  |  |
| CN[C@H](CC(C)C)C(=O)N[C@H]1C(=O)N[C@@H](CC(N)=O)C(=O)N[C@H]2C(=O)N[C@H]3C(=O)N[C@H](C(=O)N[C@H](C(=O)O)c4cc(O)cc(O)c4-c4cc3ccc4O)[C@H](O[C@H]3C[C@](C)(N)[C@@H](O)[C@H](C)O3)c3ccc(c(Cl)c3)Oc3cc2cc(c3O)Oc2ccc(cc2)[C@H]1O [Compd. D, des-(4-epi-vancosaminyl-O-glucosyl)-PA-42867-A] | 0.78 (≈ 0.623 µM) | 0.78 (≈ 0.623 µM) | 1.56 (≈ 1.25 µM) | 0.78 (≈ 0.623 µM) | 0.78 (≈ 0.623 µM) | 0.78 (≈ 0.623 µM) | 0.78 (≈ 0.623 µM) | 0.78 (≈ 0.623 µM) | 0.78 (≈ 0.623 µM) | 0.78 (≈ 0.623 µM) | 0.78 (≈ 0.623 µM) | 0.39 (≈ 0.311 µM) |  |  |  |  |  |  |  |
